Results published in patent publication US8575214B2, “MGlu 2/3 agonists” (Eli Lilly and Company, priority 2012, dated 2013).

Tests used:
[1] = both, human, pH 7.4
Protocol: Liver S9 fractions are obtained from Xenotech LLC (Lenexa, Mo.). The lot is from a pool of two donors, one male and one female. The liver S9 fraction is prepared and diluted using a homogenization buffer consisting of 50 mM Tris, pH 7.4 at 4° C. and 150 mM potassium chloride without EDTA. Prodrugs are incubated in the liver homogenate for 2 hours at 37° C., after which the concentration of active metabolite is determined by LC/MS/MS. Hydrolysis of Clopidogrel to Clopidogrel Carboxylic Acid is utilized as an assay positive control.
To ensure hydrolysis is not due to chemical instability, prodrugs are also incubated with PBS buffer alone without liver S-9.
A mobile phase gradient is utilized starting mobile phase ratio A/B of 99.9/0.1 and finishing at 1/99.

male Sprague-Dawley rats = test: Reversal of persistent pain induced by formalin injection; assay type: in vivo; conditions: ip, dosed 1 hour prior to intraplantar formalin, rat
human mGlu3 receptor = molecular target: T1, human mGlu3 receptor (Homo sapiens, UniProt Q14832); test: Human mGlu3 agonist FLIPR assay; assay type: cell-based; conditions: AV-12 cells expressing human mGlu3, EAAT1 and Gα15; relative EC50; ±52.5 SEM, n=8; read-out: EC50 in the hmGlu3 FLIPR assay
T1 construct: expressed in transfected cells; host or cells: AV-12 cells (Syrian hamster fibroblasts), co-transfected with rat EAAT1 and Galpha15
T1 sequence (Q14832 23-879): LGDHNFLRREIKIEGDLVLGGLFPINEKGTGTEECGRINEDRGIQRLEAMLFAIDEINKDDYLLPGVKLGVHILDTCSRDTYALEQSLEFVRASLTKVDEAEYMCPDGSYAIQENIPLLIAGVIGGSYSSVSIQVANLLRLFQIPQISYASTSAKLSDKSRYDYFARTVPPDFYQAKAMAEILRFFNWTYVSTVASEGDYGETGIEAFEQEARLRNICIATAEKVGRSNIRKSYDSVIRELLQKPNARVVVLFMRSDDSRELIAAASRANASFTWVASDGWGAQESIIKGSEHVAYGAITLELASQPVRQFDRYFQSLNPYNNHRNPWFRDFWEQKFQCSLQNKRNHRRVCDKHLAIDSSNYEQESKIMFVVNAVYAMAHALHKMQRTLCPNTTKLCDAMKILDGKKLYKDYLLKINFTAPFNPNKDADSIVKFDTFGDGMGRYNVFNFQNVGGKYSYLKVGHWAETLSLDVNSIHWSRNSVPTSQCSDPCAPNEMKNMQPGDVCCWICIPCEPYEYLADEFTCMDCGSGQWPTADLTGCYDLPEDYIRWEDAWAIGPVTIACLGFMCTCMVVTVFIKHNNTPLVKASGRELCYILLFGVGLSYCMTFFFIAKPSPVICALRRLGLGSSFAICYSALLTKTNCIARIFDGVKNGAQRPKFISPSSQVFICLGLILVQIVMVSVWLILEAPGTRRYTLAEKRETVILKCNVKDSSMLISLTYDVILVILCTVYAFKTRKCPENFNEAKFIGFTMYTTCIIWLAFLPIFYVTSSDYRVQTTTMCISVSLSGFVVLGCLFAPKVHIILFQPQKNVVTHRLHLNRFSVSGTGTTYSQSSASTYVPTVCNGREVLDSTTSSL
Text: (§1) AV-12 cell lines, derived from Syrian Hamster fibroblasts and stably expressing the human mGlu2 or mGlu3 receptor and co-transfected with the rat glutamate transporter EAAT 1 (Excitatory Amino Acid Transporter 1) and the Gα15 subunit, are used for these studies. The expression of Gα15 allows Gi-coupled receptors to signal through the phospholipase C pathway, resulting in the ability to measure receptor activation by a fluorometric calcium response assay. […] Intracellular calcium levels are monitored before and after the addition of compounds using a Fluorometric Imaging Plate Reader (FLIPR, Molecular Devices). […] Results are analyzed using Prism v4.03 (GraphPad Software). […] After taking an initial 5-sec fluorescent read on the FLIPR instrument, a compound of the invention is added to the cell plate (50 μL per well). […] The compound effect is measured as maximal minus minimal peak heights in relative fluorescent units (RFUs) corrected for basal fluorescence measured in the absence of glutamate. […] Agonist effects are quantified as percent stimulation induced by compound alone relative to the maximal glutamate response. All data are calculated as relative EC50 values using a four-parameter logistic curve fitting program (ActivityBase v5.3.1.22).

human mGlu2 receptor = molecular target: T2, human mGlu2 receptor (Homo sapiens, UniProt Q14416); test: Human mGlu2 agonist FLIPR assay; assay type: cell-based; conditions: AV-12 cells expressing human mGlu2, EAAT1 and Gα15; relative EC50; ±5.9 SEM, n=3; read-out: EC50 in the hmGlu2 FLIPR assay
T2 construct: expressed in transfected cells; host or cells: AV-12 cells (Syrian hamster fibroblasts), co-transfected with rat EAAT1 and Galpha15
T2 sequence (Q14416 19-872): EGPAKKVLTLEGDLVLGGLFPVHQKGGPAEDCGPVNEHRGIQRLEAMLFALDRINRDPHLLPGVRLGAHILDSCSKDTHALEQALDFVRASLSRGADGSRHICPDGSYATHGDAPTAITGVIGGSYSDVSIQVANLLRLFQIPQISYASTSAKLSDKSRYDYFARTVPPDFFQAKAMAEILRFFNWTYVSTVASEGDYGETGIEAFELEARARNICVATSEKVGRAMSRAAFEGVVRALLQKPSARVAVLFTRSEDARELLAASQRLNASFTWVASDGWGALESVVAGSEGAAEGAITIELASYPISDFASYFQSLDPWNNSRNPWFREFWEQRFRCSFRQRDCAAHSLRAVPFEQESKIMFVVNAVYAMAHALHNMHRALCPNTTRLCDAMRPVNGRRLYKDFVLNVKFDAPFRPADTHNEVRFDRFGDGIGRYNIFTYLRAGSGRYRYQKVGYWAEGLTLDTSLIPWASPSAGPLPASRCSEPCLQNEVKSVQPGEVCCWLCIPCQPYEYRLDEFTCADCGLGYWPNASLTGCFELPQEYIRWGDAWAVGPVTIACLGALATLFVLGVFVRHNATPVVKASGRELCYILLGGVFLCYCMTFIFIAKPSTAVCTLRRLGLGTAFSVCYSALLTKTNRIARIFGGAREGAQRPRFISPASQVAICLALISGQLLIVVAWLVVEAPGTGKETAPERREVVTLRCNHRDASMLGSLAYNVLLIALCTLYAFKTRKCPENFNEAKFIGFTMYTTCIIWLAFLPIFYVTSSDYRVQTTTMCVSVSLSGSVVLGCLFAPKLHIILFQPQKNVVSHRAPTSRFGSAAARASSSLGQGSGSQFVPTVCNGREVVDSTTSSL
Text: as §1

Male Fischer F-344 rats = test: Attenuation of stress-induced hyperthermia in rats; assay type: in vivo; conditions: rat, 1-hr pretreatment, relative to vehicle response
Text: In many anxiety disorders, hyperthermia occurs as part of the pathology and is considered a symptom of the disease. Compounds which attenuate stress-induced hyperthermia in animals are believed to be useful in treating anxiety disorders in humans. Generalized anxiety disorder and post traumatic stress disorder are among the disorders that may be treated with such compounds. The conventional and minimally-invasive method for analyzing stress-induced hyperthermia is by measuring body temperature, and stress-induced increases in body temperature, via rectal thermometer. Male Fischer F-344 rats (Harlan, Indianapolis, Ind., USA) weighing between 275-350 g are tested. All animals are individually-housed with food and automated water available ad libitum, and maintained on a 12 h light/dark cycle (lights on at 06:00). Animals are fasted for approximately 12-18 hours before the experiment, which is conducted during the light phase. Rats are dosed intraperitoneal (IP) in a dose volume of 1 mL/kg with compounds of the invention in the range of 0.3, 1, 3, and 10, mg/kg. […]
After the pretreatment period, rats are taken individually to a brightly lit adjacent room where baseline body temperatures are determined by insertion of a rectal probe lubricated with mineral oil. Body temperature is assessed using a […] […] Ten minutes later a second body temperature measurement is recorded (T2). […]

[2] = test system: male, Sprague-Dawley rats; test: Reversal of phencyclidine (PCP)-induced hyperlocomotor activity in rats; assay type: in vivo, rat
Text: Motor activity is monitored by placing individual male, Sprague-Dawley (Harlan, Indianapolis, Ind.) rats in transparent, plastic shoe-box cages of the dimensions 45×25×20 cm, with 1 cm depth of wood chips as bedding, and a metal grill on top of the cage. Motor monitors (Kinder Scientific) consist of a rectangular rack of 12 photobeams arranged in an 8×4 formation, (or a high density grouping of 22 in a 15×7 pattern) at a height of 5 cm, with a second rack (for measuring rearing behaviors) at a height of 15 cm. The shoe box cage is placed inside of these racks, with the racks on a 3 foot high tabletop in an isolated room. A compound of the invention (active) is dosed (intraperitoneal route) within a range of 0.3-10 mg/kg, 30 minutes prior to a 5 mg/kg challenge dose of phencyclidine (PCP). A compound of the invention (prodrug) is orally dosed within a range of 0.3-30 mg/kg, in overnight fasted rats, 4 hours prior to a 5 mg/kg challenge dose of PCP. On the test day, rats are placed in the test cage and allowed to acclimate for 30 minutes prior to PCP challenge; rats are monitored for an additional 60 minutes following PCP administration.
Data analysis and ED50 calculations are conducted using GraphPad Prism (San Diego, Calif. USA). Power analyses have determined that 8-10 rats per group are needed to have appropriate statistical power for detecting treatment differences (power=0.8). A one-way analysis of variance (ANOVA) with a post-hoc Dunnett's multiple comparison test is conducted on the total 60 minute locomotor activity. ED50 calculations are performed using non-linear regression curve fitting on percent reversal transformed data for each dose.

hPepT1 = molecular target: T3, hPepT1 (Homo sapiens, UniProt P46059); test: In vitro PepT1 GlySar inhibition screen and IC50 determination; assay type: cell-based; conditions: PepT1 transiently transfected HeLa cells
T3 construct: expressed in transfected cells; host or cells: HeLa cells (ATCC), transient transfection with PepT1 DNA using FuGene6
T3 sequence (P46059 1-708): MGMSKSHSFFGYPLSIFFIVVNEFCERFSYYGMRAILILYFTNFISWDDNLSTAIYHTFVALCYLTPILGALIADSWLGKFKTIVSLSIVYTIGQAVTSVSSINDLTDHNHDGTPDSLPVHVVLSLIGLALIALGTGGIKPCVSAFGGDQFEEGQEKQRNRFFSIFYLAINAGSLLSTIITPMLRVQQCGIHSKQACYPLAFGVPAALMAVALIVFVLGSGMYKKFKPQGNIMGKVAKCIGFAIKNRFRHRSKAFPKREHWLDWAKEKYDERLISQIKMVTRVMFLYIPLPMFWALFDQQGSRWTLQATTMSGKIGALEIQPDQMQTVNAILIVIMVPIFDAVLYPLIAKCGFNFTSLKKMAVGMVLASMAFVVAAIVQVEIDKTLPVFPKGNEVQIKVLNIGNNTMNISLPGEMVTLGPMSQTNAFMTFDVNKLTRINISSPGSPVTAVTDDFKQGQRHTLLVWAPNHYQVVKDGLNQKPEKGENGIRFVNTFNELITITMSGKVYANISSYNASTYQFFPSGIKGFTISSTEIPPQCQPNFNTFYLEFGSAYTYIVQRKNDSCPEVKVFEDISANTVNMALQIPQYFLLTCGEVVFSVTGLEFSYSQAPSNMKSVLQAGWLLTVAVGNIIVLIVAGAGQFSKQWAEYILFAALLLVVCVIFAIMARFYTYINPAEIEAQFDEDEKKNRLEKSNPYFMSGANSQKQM
Protocol: HeLa cells, […], (American Type Culture Collection) are grown in Hyclone Medium (Invitrogen, Cat# SH30243) containing 10% fetal bovine serum (FBS), 0.1 mM non essential amino acids (NEAA), and 100 units/mL penicillin with 100 μg/mL streptomycin at 37° C. in a 5% CO2 humidified atmosphere. The cell line is used for up to 40 passages and then discarded. Frozen cells in 1 ml vials are thawed in water bath for 1-2 minutes and added to 5 mL of cell medium at 37° C. Each of the T-flasks is provided with 8.5 mL of the fresh medium and 1.5 mL of the cell stock. Cells are passaged twice during a week. This is achieved by rinsing the flasks with 10 mL of phosphate buffered saline-ethylene diaminetetra acetic acid (PBS-EDTA), adding 2 mL of trypsin for 2-5 minutes, to detach the cells, and adding 8 mL of fresh medium to inhibit further activity of trypsin. Each new flask receives a combination of 8.5 mL of fresh medium and 1.5 mL of cell stock, in order to obtain 1:6 cell dilution. Cells are incubated at 37° C., until ready for the uptake study.
Cells that are 70-80% confluent in the T-flasks are plated 1 day prior to the transfection procedure. The flask with the cell stock is treated with PBS-EDTA and trypsin to detach the cells, and transfection medium is used from this point. Transfection medium consists of Dulbecco's Modified Eagle Medium (DMEM)+NEAA. To each well, 0.5 mL of the cell mixture is added (1.3×10^5 is the desired cell concentration) and the cells are incubated at 37° C. overnight. Twenty four hours before the assay, cells are transfected with PEPT1. Transfection mixture is prepared by mixing 600 μL of serum free transfection medium, 18 μL of FuGene6 (Roche Diagnostics), and 11 μg of the PepT1 DNA. The transfection reagent-DNA complex is incubated for 20 minutes and 24 μL of the reagent-DNA complex is added to each well.
J. Pharm. Exper Ther. 310:437-445). […] Uptake media consists of 140 mM NaCl, 5.4 mM KCl, 1.8 mM CaCl2, 0.8 mM MgSO4, 5 mM Glucose, 25 mM tris(hydroxymethyl)aminomethane buffer (TRIS). The solution is then brought to pH 6.0 using 2-(N-morpholino)ethanesulfonic acid. The incubation volume is 500 μL and is performed at room temperature for 3 minutes. To stop the uptake at the conclusion of the incubation time, the uptake media is aspirated off of the cell monolayer and 500 μL of ice cold PBS added to the well. The cells are washed 3 times with 500 μL of room temperature PBS without Ca^+2 and Mg^+2. The cells are then lysed with 300 μL of 1% Triton X100 H2O solution. […] A no inhibitor control is established and the percent inhibition of each prodrug is calculated with respect to this control.
The incubation and sampling procedures are exactly the same as the PepT1 screen described above.

[3] = 1 h, 10 µM, pH 7.4
Protocol: Frozen human duodenum intestinal homogenates (1:2 tissue:buffer ratio using 100 mM Tris Phosphate buffer, pH 7.4) are obtained from Celsius In Vitro Technologies (Baltimore, Md.) that were both phenylmethylsulphonylfluoride (PMSF) and EDTA free.
All original tissue collections are performed at 4° C. and immediately frozen at −70° C. Human intestinal homogenates are thawed and diluted to a final protein concentration of 0.5 mg/mL in 100 mM PBS buffer, pH 7.4 immediately prior to the incubations.
Incubations are conducted in 96-well plates and all prodrugs are run in duplicate on each day. Stock prodrug solutions are prepared in water at a concentration of 1 mM. A 200 μL aliquot of 0.5 mg/mL intestinal homogenate and 196 μL of 100 mM PBS buffer are placed in a 96-well plate in a 37° C. water bath. Using a 96-well pipettor, 4 μL of the 1 mM prodrug solution is transferred into the homogenate. Immediately after addition of the prodrug (time zero) and after 1 hour incubation, 50 μL samples of the incubation mixture are removed using an automated disposable simultaneous 96 well pipettor and added directly to 200 μL of methanol quench solution containing 100 ng/mL of Internal Standard. The samples are then centrifuged at 3500 rpm for 5 minutes at 10° C. The supernatant (200 μL) is transferred to a final 96 well PCR plate and sealed for analysis by LC/MS/MS.
Concentrations of hydrolyzed active metabolite in the incubation mixtures are determined using LC/MS/MS detection on a Sciex API 4000 quadrapole mass spectrometer with Analyst version 1.4.2, TurbolonSpray, positive ionization, and Selected Reaction Monitoring (SRM). […]
Averages and standard deviations are calculated using Microsoft® Office Excel® 2007. Amount of hydrolysis is determined as a molar percentage of active metabolite formed relative to prodrug concentration added.

| Hydrolysis of Clopidogrel to Clopidogrel Carboxylic Acid (positive control) [1] [%] | EC50 (human mGlu3 receptor) [µM] | EC50 (human mGlu2 receptor) [µM] | IC50 (hPepT1; 0.0625 to 25 mM, read-out: hPepT1 [3H]Gly-Sar uptake inhibition IC50) [µM] | inhibition at 5000 µM (hPepT1; pH 6.0, 3 minutes, read-out: hPepT1 [3H]Gly-Sar uptake inhibition at 5 mM) [%] | human intestinal hydrolysis relative to Internal Prodrug A [3] [%] | SMILES | ED50 (male Sprague-Dawley rats) [mg/kg] | T35 (dose producing a 35% reduction in stress-induced hyperthermic response) (Male Fischer F-344 rats) [mg/kg] | ED50 ([2]; 0.5 h, i.p., 30 minutes prior to 5 mg/kg PCP, rat) [mg/kg] | ED50 ([2]; Rattus norvegicus, p.o., overnight fasted rats, 4 hours prior to 5 mg/kg PCP) [mg/kg] |
| --- | --- | --- | --- | --- | --- | --- | --- | --- | --- | --- |
| 73.0 |  |  |  |  |  | COC(=O)[C@H](c1ccccc1Cl)N1CCc2sccc2C1 [Clopidogrel] |  |  |  |  |
|  | 0.285 | 0.039 |  |  |  | N[C@@]1(C(=O)O)CC2(CC2)[C@H]2[C@H](C(=O)O)[C@H]21 [Example 2, (1S,2S,5R,6S)-2-Aminospiro[bicyclo[3.1.0]hexane-4,1′-cyclopropane]-2,6-dicarboxylic acid] | 0.7 | 0.57 | 1.46 |  |
|  |  |  | 1980 | 89 | 36 | C[C@H](N)C(=O)N[C@@]1(C(=O)O)CC2(CC2)[C@H]2[C@H](C(=O)O)[C@H]21.Cl [Example 5, (1S,2S,5R,6S)-2-[[(2S)-2-Aminopropanoyl]amino]spiro[bicyclo[3.1.0]hexane-4,1′-cyclopropane]-2,6-dicarboxylic acid hydrochloride] |  | 6.4 |  | 2.95 |
